From patent US9278087B2, “Derivative of butylphthalide and preparation method and use thereof” (Shijiazhuang Yiling Pharmaceutical Co., Ltd, priority 2011, dated 2016)
Where a name gives a salt, the structure may show the parent alone. Read-outs that look alike come from different tables or passages of the source. Marks after values point to notes of the source that are not given here.

Key:
rats with local ischemia [1] = format: in vivo
Method: (§1) Wistar rats, body weight 250˜280 g, were raised separately before and after the surgical operation, and kept at room temperature of 23˜25° C. All the rats were allowed ad libitum access to food and water. tMCAO models were prepared according to the method of longa, et al. Rats were anaesthetized with 10% chloral hydrate (350 mg/kg, i.p.), and the body temperature was maintained at 37±0.5° C. The rat was fixed in supine position onto an operating table. The skin was cut along the midline of the neck, and the common carotid artery (CCA), external carotid artery (ECA) and internal carotid artery (ICA) on the right side were carefully isolated. The ECA was ligated and cut, and straightened in line with the ICA. A small incision was cut on the ECA, and a 4.0 cm long round-head silicified nylon thread with a diameter of 0.26 mm (coated with 0.1% polylysine) was inserted through this incision into the ICA for about 1.85˜2.00 cm, until the starting place of the anterior cerebral artery of the rat, to block the blood supply of the middle cerebral artery. After 2 hr of ischemia, the nylon thread was pulled out carefully, the ECA incision was ligated, and the operational incision was sutured. The animal was returned to the cage for 24 hr reperfusion.
(§2) After reperfusion injury in the rat for 24 hr, the rat was beheaded and the brain was taken out immediately. The olfactory tract, the cerebellum and the low brain stem were removed. The brain was coronally cut into 6 slices (the first slice to the fifth slice was 2 mm/slice, and the sixth slice was 4 mm), and they were rapidly placed into 5 ml solution containing 1.5 ml 4% TTC and 0.1 ml 1 M K2HPO4 to stain (37° C., shielded from light) for 20˜30 min, wherein they are flipped once every 5 min. After the TTC staining, the normal tissue was dark stained and appeared red, and the infarcted tissue appeared white. Each group of brain slices were neatly arranged and were taken photos for preservation. The infarction area in each slice was calculated, and the infarction volume was finally converted by superposition. The infarction volume was expressed in percentage in a cerebral hemisphere, to eliminate the effects of cerebral edema. Brain infarction volume(%)=(volume of the contralateral hemisphere to the operated side−volume of uninfarcted portion of the operated hemisphere)/volume of the contralateral hemisphere to the operated side*100% (4) Experimental Results
Rats of the ischemia blocking model in Example 11 were taken, and randomly divided into 12 groups: sham operation group, model control group, (water for injection, 10 mg/kg), 1a group (2.5 mg/kg, 5.0 mg/kg, 10 mg/kg), 1b group (2.5 mg/kg, 5.0 mg/kg, 10 mg/kg), and 1c group (2.5 mg/kg, 5.0 mg/kg, 10 mg/kg). 10 min after ischemia caused by MCA blockage, they were administered intravenously.
The determination of the volume of cerebral infarction was the same to Example 4.

[2] = test system: mice induced by pentobarbital sodium; experiment: Hypnosis test of pentobarbital sodium in dosage above threshold; format: in vivo, Kunming mice; conditions: for Time for falling asleep / Sleeping time: 25 mg/kg gavage for 30 days, pentobarbital sodium 50 mg/kg i.p.; for Sleeping time: within 60 min; for Effect of improving sleep, in words: oral administration to mice for 30 days, summary of both hypnosis tests
Method: (§3) Source of animals: Kunming mice, 18˜22 g, male, were clean grade animals provided by Guangdong Medical Lab Animal Center. In the breeding room of the experimental animals, the temperature was 22±2° C., the relative humidity was 55˜70%, and the animal feed was provided by Guangdong Medical Lab Animal Center.
(§4) 3 groups of Compound 7, Compound 8, DL-3-(3′-hydroxy)-butylphthalide (DL for short) were set in the experiment, 25 mg/kg respectively. And distilled water control group was additionally set.
(§5) Sample processing: 25 mg respective sample was taken, and added with distilled water to 20 ml, to form a uniform suspension, for use in the test.
(§6) Route for administration: gavage
(§7) 40 male mice with a body weight of 18˜22 g were selected, and randomly divided into 4 groups, 10 mice in each group. They were consecutively administered with samples for 30 days, and 15 min after the administration of the samples by gavage on the 30th day, each group of animals were i.p. injected with 50 mg/kg.b.w pentobarbital sodium, and the injection amount was 0.2 ml/20 g.b.w. The criterion for judging falling asleep was that the righting reflex in a mouse disappeared for 1 min or more. The time for falling asleep and the sleeping time of each group of animals within 60 min were observed after administration of pentobarbital sodium.

rats with local ischemia [3] = experiment: Volume of cerebral infarction in tMCAO rats, gavage administration; format: in vivo, Wistar rats; conditions: for Volume of cerebral infarction (25 mg/kg group): 25 mg/kg oral (gavage) 10 min after ischemia; for Volume of cerebral infarction (25 mg/kg group) / Volume of cerebral infarction (50 mg/kg group) / Volume of cerebral infarction (100 mg/kg group): 2 hr ischemia, 24 hr reperfusion; for Volume of cerebral infarction (50 mg/kg group): 50 mg/kg oral (gavage) 10 min after ischemia; for Effect on the volume of cerebral infarction, in words: oral administration, compared with solvent control group; for Volume of cerebral infarction (100 mg/kg group): 100 mg/kg oral (gavage) 10 min after ischemia
Method: as §1
Rats were randomly divided into 12 groups: model control group, water for injection (100 mg/kg), the administration group of the Compound 7 in Example 1 (25, 50, 100 mg/kg), the administration group of the Compound 8 in Example 1 (25, 50, 100 mg/kg), the administration group of DL-3-(3′-hydroxy)-butylphthalide (DL for short) (25, 50, 100 mg/kg). They were orally administered 10 min after the ischemia caused by MCA blockage.
as §2

[4] = test system: mice induced by pentobarbital sodium; experiment: Hypnosis test of pentobarbital sodium in dosage below threshold; format: in vivo, Kunming mice; conditions: for Incidence of sleep / Number of animals falling asleep: 25 mg/kg gavage, pentobarbital sodium 30 mg/kg i.p., within 25 min; for Number of animals falling asleep: 10 animals per group; for Number of animals falling asleep and incidence of sleep compared with control group, in words: pentobarbital sodium in dosage below threshold
Method: as §3, §4, §5, §6
as §7, with “for 28” for “for 30”, “with 30” for “with 50”, “for” for “for falling asleep and”, “the occurrence of sleep” for “the sleeping time”, “within 25” for “within 60”

Solubility in water = format: physicochemical
[5] = 2.5 mg/kg intravenous 10 min after ischemia, 2 hr ischemia, 24 hr reperfusion
[6] = 5.0 mg/kg intravenous 10 min after ischemia, 2 hr ischemia, 24 hr reperfusion
[7] = 10.0 mg/kg intravenous 10 min after ischemia, 2 hr ischemia, 24 hr reperfusion

| SMILES | Volume of cerebral infarction (2.5 mg/kg group) (rats with local ischemia [1]; [5]) | Volume of cerebral infarction (5.0 mg/kg group) (rats with local ischemia [1]; [6]) | Volume of cerebral infarction (10.0 mg/kg group) (rats with local ischemia [1]; [7]) | Time for falling asleep [2] | Sleeping time [2] | Effect of improving sleep, in words [2] | Volume of cerebral infarction (25 mg/kg group) (rats with local ischemia [3]) | Volume of cerebral infarction (50 mg/kg group) (rats with local ischemia [3]) | Effect on the volume of cerebral infarction, in words (rats with local ischemia [3]) | Incidence of sleep [4] | Number of animals falling asleep [4] | Volume of cerebral infarction (100 mg/kg group) (rats with local ischemia [3]) | Number of animals falling asleep and incidence of sleep compared with control group, in words [4] | also measured |
| --- | --- | --- | --- | --- | --- | --- | --- | --- | --- | --- | --- | --- | --- | --- |
| CC(CC[C@@H]1OC(=O)c2ccccc21)OC(=O)CCC(=O)[O-].[Na+] (stereo partly drawn) [Compound 1a, sodium salt of (S)-3-(3′-succinate ester)butylphthalide] | 21% | 15.4% | 11.8% | – | – | – | – | – | – | – | – | – | – | – |
| CC(O)CC[C@H]1OC(=O)c2ccccc21 (single isomer, unassigned; (+)) [Compound 7] | – | – | – | 5.78 ± 1.88 min | 41.16 ± 7.80 min | does not have the effect of improving sleep | 19.8% | 18.9% | did not effectively reduce the volume of cerebral infarction | 30% | 3 | – | – | Effect on the volume of cerebral infarction, in words (rats with local ischemia [3]; listed as R-configuration): cannot affect the cerebral infarct volume; Effect on the volume of cerebral infarction, in words (rats with local ischemia [3]; listed as compound in R-configuration): does not have the effect of reducing the cerebral infarct volume |
| CC(CC[C@@H]1OC(=O)c2ccccc21)OC(=O)CN (stereo partly drawn) [Compound 1b, (S)-3-(3′-glycinate ester)butylphthalide hydrochloride] | – | – | – | – | – | – | – | – | – | – | – | – | – | Volume of cerebral infarction (2.5 mg/kg group) (rats with local ischemia [1]; rat, in vivo): 21.3%; Volume of cerebral infarction (5.0 mg/kg group) (rats with local ischemia [1]; rat, in vivo): 16.0%; Volume of cerebral infarction (10.0 mg/kg group) (rats with local ischemia [1]; rat, in vivo): 12.0% |
| CC(O)CCC1OC(=O)c2ccccc21 (racemic) [DL, DL-3-(3′-hydroxy)-butylphthalide, reference compound] | – | – | – | 4.68 ± 1.35 min | 45.48 ± 11.23 min | have effects of improving sleep | 17.2% | 16.4% | can significantly reduce the volume of cerebral infarction | 50% | 5 | 14.5% | have significant difference | – |
| CC(CC[C@@H]1OC(=O)c2ccccc21)OP(=O)([O-])[O-].[Na+].[Na+] (stereo partly drawn) [Compound 1c, (S)-3-(3′-phosphate ester)butylphthalide disodium salt] | 20.6% | 15.8% | 11.7% | – | – | – | – | – | – | – | – | – | – | – |
| CC(O)CC[C@@H]1OC(=O)c2ccccc21 (single isomer, unassigned; (-)) [Compound 8] | – | – | – | 3.91 ± 0.99 min | 53.28 ± 11.12 min | have effects of improving sleep | 14.6% | 13.8% | can significantly reduce the volume of cerebral infarction | 80* % | 8* | 11.8% | have significant difference | Solubility in water, in words (Solubility in water): insoluble in water; Effect of improving sleep, in words ([2]; listed as S-configuration): can improve the sleeping state in animals; Effect of improving sleep, in words ([2]; listed as S-configuration of the Metabolite I): has the effect of improving sleep; Time for falling asleep and sleeping time compared with control group, in words ([2]; pentobarbital sodium in dosage above threshold): have significant difference; Effect on the volume of cerebral infarction, in words (rats with local ischemia [3]; listed as S-configuration): decreasing the cerebral infarct volume |
